Laboratory results: US5196512A (priority 1989, dated 1993)
Ends that are not written are not given here.

Key:
[1] = test system: T cell clones; format: cell-based, human
[2] = test system: Peripheral blood mononucleate cells (PBMC); format: cell-based, human
[3] = test system: T cell clones specific for TT3; format: cell-based, human
[4] = test system: T cell clones specific for TT3; format: cell-based, human; remark: listed apart in the source
[5] = test system: C57BL/6, CBA and DBA/2 mice; conditions: mouse, in vivo
[6] = test system: lymph node cells; format: cell-based, mouse
[7] = test system: CBA, DBA/2 and C57BL/6 mice; conditions: CBA and DBA/2 mice; n between 3 and 40; cited from earlier work

FNNFTVSFWLRVPK [TT200]
recognition of the epitope by restricted T cell clones [1]: recognised by all other DR and DP allele restricted clones

FNNFTVSFWLRVPKVSASHLE [TT3]
in vitro response of PBMC of different HLA-typized individuals immunized with the tetanus toxin [2]: responded in vitro
share of all the T cells specific for the tetanus toxoid (TT) [2]: ≤ 5%
proliferation of all the isolated clones in response to antigen presented by autologous APC cells [3]: proliferated
Independent restriction (class II MHC alleles able to present the peptide to at least one T cell clone) [4]: DR5 and DR9 and DR7 and DP2 and DP4 and DP? and DR5JVM/DP4
anti-TT3 antibody count after boosting [5]: increased
anti-TT3 antibody count with IFA compared with CFA [5]: same values
proliferative T cell response of lymph node cells [6]: good proliferative T cell response

H-(Asn-Ala-Asn-Pro)n -OH (H-NANP-OH; also: repeated n times) [(NANP)n]
anti-CSP antibody response [7]: not able to induce

tetanus toxoid [reference compound]
proliferation of all the isolated clones in response to antigen presented by autologous APC cells [3]: proliferated
